`O=C(Cc1c(-c2ccccc2)c2cc(CSc3ccccn3)c(Cl)cc2oc1=O)Nc1ccc(Cl)cc1C(F)(F)F` gave a melting point of 213 to 215 °C.
With `Cc1nc(C(=O)N(C)C)c2n1-c1ccc(Cl)cc1C(c1ccccc1)=NC2` the melting point was 173 to 175 °C.
For `COc1ccc(Cc2cc(O)ccc2OC)nc1`, the melting point was 115 to 122 °C.
Work on `CS(=O)(=O)NCc1ccc2[nH]cc(CCN3C(=O)c4ccccc4C3=O)c2c1` yielded a melting point of 162 to 165 °C.
`CS(=O)(=O)c1cccc(NC(=O)c2cnn3c(Cl)cc(-c4ccc(Cl)cc4)nc23)c1` showed a melting point of 253 to 255 °C.
`OCCCSCCSCCCO` showed a melting point of 52 °C.
With `NC(=O)c1c(N)cccc1OCc1ccccc1` the melting point was 158 to 160 °C.
In the case of `O=Cc1ccc(N(Cc2ccccc2)Cc2ccccc2)cc1[N+](=O)[O-]`, the melting point is reported as 67 to 70 °C.
`COc1ccc(-n2c(-c3ccc(-c4ccc(-c5nc6c7ccccc7c7ccccc7c6n5-c5ccc(OC)cc5)cc4)cc3)nc3c4ccccc4c4ccccc4c32)cc1` showed a melting point of 403 °C.
Work on `CCCCCS(=O)(=O)NC(=O)CCc1cc(OC(C)C)nn1Cc1ccc(F)cc1F` yielded a melting point of 107 to 108 °C.
Molecule `COC(=O)NN=Cc1nc(-c2cccc(C)c2)[nH]c1C` has a melting point of 162 to 164 °C.
In the case of `CCOC(=O)c1cc2cccc(O)c2[nH]1`, the melting point is reported as 197 to 199 °C.
`COc1cc(C(=O)C(=O)N2C3CCCC2C(=O)N(CCCCc2ccccc2)C3=O)cc(OC)c1OC` showed a melting point of 101 to 103 °C.
`CC(C)c1cccc(C(C)C)c1NC(=O)NCC1(S(=O)(=O)c2ccccc2)CCCC1` gave a melting point of 124 °C.
`O=C1Nc2ccccc2Sc2cscc21` gave a melting point of 215 to 216 °C.
In the case of `C=CCc1ccccc1OC[C@@H](O)CNCCc1ccc(NC2CCN(S(=O)(=O)c3ccc(N(CCCCCC)C(N)=O)cc3)CC2)cc1`, the melting point is reported as 68 to 70 °C.
`Cc1oc(-c2ccccc2)nc1COc1cncc(COc2ccccc2CC(=O)O)c1` gave a melting point of 207 to 208 °C.
In the case of `Oc1ccc(-c2ncc3ncc(-c4ccsc4)cc3n2)cc1`, the melting point is reported as 248 to 250 °C.
Molecule `CCC1c2cccn2-c2ccc(Br)cc2N1S(=O)(=O)c1ccc(O)c(C)c1` (stereo not given) has a melting point of 191 to 193 °C.
For `COC(=O)c1cc(Cl)c2c(c1Cl)OC(c1ccccc1)(c1ccccc1)O2`, the melting point was 69 to 70 °C.
`OC(c1ccc(F)cc1)C1(n2cncn2)CC1` (stereo not given) showed a melting point of 104 to 106 °C.
Molecule `CC1CN(c2c(F)c(N)c3c(=O)c(C(=O)O)cn(C4CC4)c3c2F)CCN1` (stereo not given) has a melting point of 251 to 253 °C.
For `O=C(O)Cc1c(C(=O)O)c2cc(Oc3ccc(C(F)(F)F)cc3)ccc2n1-c1ccc(N2CCOCC2)cc1`, the melting point was 257 to 259 °C.
Work on `CNS(=O)(=O)/C=C/c1cc(Cl)cnc1N` yielded a melting point of 194 to 198 °C.
`COc1ccc(-c2[nH]cnc2-c2cc(OC)c(O)c(OC)c2)cc1N` gave a melting point of 148 to 150 °C.
`CCOC(=O)c1c(CN2CCCC2=O)nc2sc3c(c2c1-c1ccc2c(c1)OCO2)CCN(C(=O)c1ccccc1)C3` showed a melting point of 270 to 271 °C.
For `CCCCCCCCCCCCCCCCCCOc1ccccc1CC(=O)CO`, the melting point was 59 to 60 °C.
Molecule `CCOC(=O)/C=C/c1cn(Cc2ccc(Oc3ccccc3)cc2)nc1OCc1nc(-c2ccccc2)oc1C` has a melting point of 93 to 94 °C.
With `CCOC(=O)C=Cc1ccc(C=Cc2ccc(C=CC(=O)O)cc2)cc1` the melting point was 245 to 248 °C.
Work on `O=C1CCC(c2ccc(F)c(F)c2)CC1` yielded a melting point of 61 °C.
Molecule `O=C(c1ccccc1)n1c(SC(F)(F)F)cc(-c2ccc(F)cc2)c1-c1ccc(F)cc1` has a melting point of 106 °C.
With `CNC(=O)c1ccc(COCc2csc3nc(C(=O)NCc4cccc(OC)c4)[nH]c(=O)c23)cc1` the melting point was 190 to 191 °C.
`CC(=O)Nc1cccc2c1C(=O)c1c-2n[nH]c1-c1ccncc1` gave a melting point of over 300 °C.
Molecule `COC(=O)[C@@H]1C[C@H](OC(=N)C(Cl)(Cl)Cl)C(=O)[C@H]2[C@@]1(C)CC[C@H]1C(=O)O[C@H](c3ccoc3)C[C@]21C` has a melting point of 120 to 123 °C.
Work on `CCCCCCCCCCCC(=O)Nc1ccc2nc(S)[nH]c2c1` yielded a melting point of 266 to 267 °C.
For `O=C1C=CCC(CCc2ccccc2)(c2ccccc2)O1` (stereo not given), the melting point was 130 °C.
With `Cc1cc(Oc2ccc(Cl)cc2Cl)ccc1C#N` the melting point was 52 to 55 °C.
`CC1(C)CC2(CC(C)(C)N1)NC(=O)N(CC(O)COC(=O)CCCCC(=O)OCC(O)CN1C(=O)NC3(CC(C)(C)NC(C)(C)C3)C1=O)C2=O` (stereo not given) showed a melting point of 132 to 134 °C.
`O=C(O)CCC(=O)c1ccc2c(c1)oc1ccccc12` gave a melting point of 208 to 210 °C.
Work on `CC(C)(C)NC(=O)c1ccc2[nH]ccc2c1` yielded a melting point of 176 °C.
`CCOC(=O)c1cnn2c1nc(NCCCN(C)C)c1cnc3c(cnn3CC)c12` gave a melting point of 212 to 215 °C.
In the case of `CC(c1cccc(C(=O)c2ccccc2)c1)C(O)CC#N` (stereo not given), the melting point is reported as 130 °C.
Molecule `CCc1nc2c(N)nc(C)c(C)c2n1CCOCCNC(=O)NC(=O)c1ccccc1` has a melting point of 185 to 187 °C.
Work on `Clc1cccc2c1Nc1ccccc1N=C2N1CCN(Cc2ccc3c(c2)OCO3)CC1` yielded a melting point of 160 to 162 °C.
Molecule `COc1ccc(C[C@]2(C)C(=O)O[C@@H](c3ccccc3)N2C(=O)c2ccccc2)cc1` has a melting point of 128 to 129 °C.
Work on `CC(C)(O)Cn1c(CON2C(=O)c3ccccc3C2=O)nc2c(N)nc3ccccc3c21` yielded a melting point of 270 to 272 °C.
With `CCCCC1N=CC(C=O)(Cc2ccc(C(=O)OC)c3ccccc23)N1` (stereo not given) the melting point was 95.5 to 97 °C.
Molecule `CCCCCCCCC[C@@H](CC(N)=O)N(CCC)C(=O)[C@H](CCCC(=O)O)NC(=O)c1cn(Cc2ccccc2)c2ccccc12` has a melting point of 155 to 160 °C.
Molecule `CC1(C(=O)O)CCCc2cc(C3CCCCC3)ccc21` (stereo not given) has a melting point of 128 to 129 °C.
For `CCOCc1nc2c(N)nc3ccc(OCc4ccccc4)cc3c2n1CCCCN(C(N)=O)c1ccccc1`, the melting point was 186 to 188 °C.
In the case of `COC(=O)Cc1c(C)n(-c2nc(OC)nc3ccccc23)c2ccc(OC)cc12`, the melting point is reported as 152 to 154 °C.
With `O=C(O)CCCc1cc2nc(Cl)ccc2n1S(=O)(=O)c1ccc2ncsc2c1` the melting point was 178 °C.
`C1=C(c2c[nH]c3ccccc23)CCN(CCc2csc3ccccc23)C1` showed a melting point of 195 to 198 °C.
For `CCOC(=O)c1ccc(C(=O)O)s1`, the melting point was over 300 °C.
`OCC(O)Cc1nccn1CCCc1cccc(OCc2coc(/C=C/c3ccc(C(F)(F)F)cc3)n2)c1` (stereo not given) showed a melting point of 102 to 104 °C.
Molecule `NC(=O)N1C(=O)C(C(=O)c2cc(Cl)cs2)c2cc(C(F)(F)F)ccc21` (stereo not given) has a melting point of 164 to 166 °C.
For `O=C(NO)[C@H](CNCS(=O)(=O)c1ccc(OCc2ccccc2)cc1)N1CCCCC1`, the melting point was 102 °C.
For `COc1c(N2CC[C@@H](O)[C@H](C)C2)c(F)c(N)c2c(=O)c(C(=O)O)cn(C3CC3)c12` (relative stereo), the melting point was 240 to 244 °C.
With `N#CCC1Cn2cccc2C1=O` (stereo not given) the melting point was 68 °C.
With `COC(C)=CC(=O)Nc1cccc(OC(=O)NC(C)C)c1` the melting point was 210 °C.
For `NC(=O)N(CCCl)C(c1ccccc1)P(=O)(O)O` (stereo not given), the melting point was 195 °C.
In the case of `CN(C(=O)Oc1cccc2c1OC(C)(C)C2)C(=O)N1CCCCC1`, the melting point is reported as 98 to 100 °C.
With `COc1cccc2c1CC1CC(CN3CCC(c4c[nH]c5ccccc45)CC3)CN(C)C1C2` (stereo not given) the melting point was 220 to 223 °C.
Molecule `CC(=O)Oc1cccc(C=Cc2ccc3ccccc3n2)c1` has a melting point of 86 to 87 °C.
`CCCCN(C(=O)NC)c1ccc(Cl)c(Cl)c1` gave a melting point of 58 °C.
With `CC1(C)C(=O)Nc2cc(C(=O)Nc3ccc(N)cc3)ccc21` the melting point was 216 to 218 °C.
Work on `CCOC(=O)c1c(Cn2nccn2)nc2cc(OC)c(OC)cc2c1-c1ccc(OC)c(OC)c1` yielded a melting point of 163 to 164 °C.
Work on `O=C(Nc1ccc(N2CCS(=O)(=O)CC2)c(C(F)(F)F)c1)N1CCc2cc(Oc3cc(Cl)ncn3)ccc21` yielded a melting point of 248 to 255 °C.
`CCCN(CCC)CCc1cccc2[nH]c(=O)[nH]c12` showed a melting point of 189 to 192 °C.
`CCONC(O)(CC)C1C(=O)C=C(CC)OC1=O` (stereo not given) showed a melting point of 63 to 64 °C.
With `COC(=O)c1c(C(=O)OC)c2n(c1C)Cc1ccccc1C2` the melting point was 152 to 154 °C.
`CCOC(=O)C1=C(C)N(C(C)=O)C(c2csc(C)n2)=NC1c1ccc(C)cc1` (stereo not given) gave a melting point of 187 to 188 °C.
Work on `Clc1ccc(N2CCCCC2)cc1` yielded a melting point of 69 °C.
`C=C(C)n1cc(C(=O)O)c(=O)c2cc(F)c(N3CC[C@H](N)C3)cc21` showed a melting point of 249 to 255 °C.
Work on `CCCCCCCCCCCCc1c[nH]c2cc(C(=O)O)ccc12` yielded a melting point of 181 to 184 °C.
Work on `CCCCNc1cc(C(=O)O)cc(S(N)(=O)=O)c1Oc1ccc(N)cc1` yielded a melting point of 264 °C.
In the case of `Cc1cc(-n2cncn2)ncc1[N+](=O)[O-]`, the melting point is reported as 198 to 200 °C.
For `C[C@H]1C[C@H](OC(=O)C(C)(C)Oc2ccc(CCNC(=O)c3ccc(Cl)cc3)cc2)CC(C)(C)C1` (relative stereo), the melting point was 100 °C.
For `COC(=O)c1ccccc1-c1ccc(N(C)C)cn1`, the melting point was 161 to 163 °C.
Molecule `Cc1cc(OCCc2nc(-c3ccccc3)oc2C)ccc1OC(C)(C)C(=O)O` has a melting point of 117 °C.
For `O=C(Cc1ccccc1)NC1CN(C(C(=O)OCc2ccccc2)c2ccccc2)C1=O` (stereo not given), the melting point was 96 to 98 °C.
For `O=c1cc2c(nn1-c1ccc(Cl)cc1)-c1cccc(Cl)c1SCC2`, the melting point was 166 to 168 °C.
With `CN(Cc1cc2ccccc2n1C)C(=O)/C=C/c1ccc(N2C(=O)CCC2=O)nc1` the melting point was 185 to 187 °C.
Work on `COc1ccc(C)cc1NC(=O)Nc1ccc(N2CCN(C(=O)Oc3c(C)cccc3Cl)CC2)cc1` yielded a melting point of 146 to 148 °C.
`C=CCS(=O)(=O)c1cccnc1S(=O)(=O)NC(=O)Nc1nc(OC)cc(OC)n1` showed a melting point of 185 °C.
With `CCN(CC)C(=O)COC(=O)/C=C/C(=O)OC` the melting point was 53 to 56 °C.
For `CC1Cc2cccc(S(N)(=O)=O)c2S1(=O)=O` (stereo not given), the melting point was 167 to 169 °C.
In the case of `CCCCCCOc1ccc(NC(=O)c2cnn(C)c2C)cc1C#N`, the melting point is reported as 150 to 151 °C.
`CC1CC(=O)NN=C1c1cc2cc(O)c(O)cc2s1` (stereo not given) gave a melting point of over 270 °C.
`CCOC(=O)c1c(Cn2cnnc2)nc2cc(OC)c(OC)cc2c1-c1ccc(OC)c(OC)c1` gave a melting point of 226 to 227 °C.
For `O=C1Cc2cc(-c3ccccc3)ccc2N1`, the melting point was 214 to 215 °C.
`O=S(=O)(/C=C\S(=O)(=O)c1ccccc1)c1ccccc1` showed a melting point of 100 to 101 °C.
`COc1cc2c(c(OC)c1OC)C(=O)c1c-2n(C)c(=O)c2ccccc12` gave a melting point of 194 to 195 °C.
Work on `CC(C)(C)[Si](C)(C)N1C(=O)[C@@H](N2C(=O)c3ccccc3C2=O)[C@H]1/C=C/c1ccccc1` (relative stereo) yielded a melting point of 167 to 168 °C.
`CCCCc1nc(Cl)c(Cl)n1Cc1ccc(-n2cccc2C(=O)O)cc1` showed a melting point of 181 to 182 °C.

— a melting point compilation (Tetko et al.; mined from patent text by program, amines drawn as free bases though some values may be those of a salt)
